From ChEMBL document CHEMBL1201862, “PubChem BioAssay data set” (2004)
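96-well plates; 48 h exposure; 5 concentrations. Endpoints by linear interpolation between flanking doses. Not reached: highest tested concentration assigned. GI50: concentration for 50% inhibition of growth.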 Activity calls are given as the source filed them. Cut-off read from the data, not from the text of the source: active = GI50 up to about 1.1 µM and inactive = higher.

What was measured:
Assay in all cases: NCI tumour cell line growth inhibition, 48 h
IGROV-1 = system: IGROV-1
NCI-H460 = system: NCI-H460
OVCAR-4 = system: OVCAR-4
U-251 = system: U-251
SF-295 = system: SF-295
NCI-H23 = system: NCI-H23
HCT-15 = system: HCT-15
M14 = system: M14
A549 = system: A549
HCC 2998 = system: HCC 2998
SK-MEL-5 = system: SK-MEL-5
HCT-116 = system: HCT-116
SW-620 = system: SW-620
UACC-62 = system: UACC-62
SNB-75 = system: SNB-75
SK-MEL-2 = system: SK-MEL-2
MDA-MB-231 = system: MDA-MB-231
HL-60 = system: HL-60
786-0 = system: 786-0
DU-145 = system: DU-145
RXF 393 = system: RXF 393
K562 = system: K562
TK-10 = system: TK-10
UACC-257 = system: UACC-257
UO-31 = system: UO-31
LOX IMVI = system: LOX IMVI
OVCAR-5 = system: OVCAR-5
PC-3 = system: PC-3
MOLT-4 = system: MOLT-4
EKVX = system: EKVX
HT-29 = system: HT-29
RPMI-8226 = system: RPMI-8226
Hs-578T = system: Hs-578T
OVCAR-8 = system: OVCAR-8
BT-549 = system: BT-549
NCI/ADR-RES = system: NCI/ADR-RES
T47D = system: T47D
CCRF-CEM = system: CCRF-CEM
NCI-H522 = system: NCI-H522
COLO 205 = system: COLO 205
HOP-92 = system: HOP-92
MCF7 = system: MCF7
OVCAR-3 = system: OVCAR-3
NCI-H226 = system: NCI-H226
SK-OV-3 = system: SK-OV-3
SNB-19 = system: SNB-19
HOP-62 = system: HOP-62
KM12 = system: KM12
SF-539 = system: SF-539
Malme-3M = system: Malme-3M
ACHN = system: ACHN
MDA-MB-435 = system: MDA-MB-435
SF-268 = system: SF-268
SK-MEL-28 = system: SK-MEL-28
SN12C = system: SN12C
CAKI-1 = system: CAKI-1

In the case of `C(=N\N=C1NCCCCN1)/c1ccc2ccccc2c1`, the GI50 (IGROV-1) is reported as 40.9 µM (inactive), the GI50 (NCI-H460) is reported as 22.3 µM (inactive) and the GI50 (OVCAR-4) is reported as 43.1 µM (inactive). For the same compound, the GI50 (U-251) was 21.3 µM (inactive), the GI50 (SF-295) was 21.3 µM (inactive) and the GI50 (NCI-H23) was 76.7 µM (inactive). The GI50 (HCT-15) was 28.1 µM, the GI50 (M14) was 14.5 µM (inactive) and the GI50 (A549) was 50.2 µM (inactive). The GI50 (HCC 2998) was 15.3 µM (inactive), the GI50 (SK-MEL-5) was 17.4 µM (inactive) and the GI50 (HCT-116) was 33.7 µM (inactive). For the same compound, the GI50 (SW-620) was 22.7 µM (inactive), the GI50 (UACC-62) was 31 µM (inactive) and the GI50 (SNB-75) was 13 µM (inactive). For the same compound, the GI50 (SK-MEL-2) was 21.9 µM (inactive), the GI50 (MDA-MB-231) was 31.4 µM (inactive) and the GI50 (HL-60) was 23.3 µM (inactive). For the same compound, the GI50 (786-0) was 23.1 µM (inactive), the GI50 (DU-145) was 67.3 µM (inactive) and the GI50 (RXF 393) was 22.8 µM (inactive). For the same compound, the GI50 (K562) was 20.9 µM (inactive), the GI50 (TK-10) was 37.9 µM (inactive) and the GI50 (UACC-257) was 21.9 µM (inactive). For the same compound, the GI50 (UO-31) was 36.8 µM (inactive), the GI50 (LOX IMVI) was 15.7 µM (inactive) and the GI50 (OVCAR-5) was 25.2 µM (inactive). The GI50 (PC-3) was 29.6 µM (inactive), the GI50 (MOLT-4) was 23.5 µM (inactive) and the GI50 (EKVX) was 46.7 µM (inactive). The GI50 (HT-29) was 22.8 µM (inactive), the GI50 (RPMI-8226) was 27.5 µM (inactive) and the GI50 (Hs-578T) was 92.9 µM (inactive). For the same compound, the GI50 (OVCAR-8) was 43.7 µM (inactive), the GI50 (BT-549) was 37.2 µM (inactive) and the GI50 (NCI/ADR-RES) was 98.2 µM (inactive). The GI50 (T47D) was 18.4 µM (inactive), the GI50 (CCRF-CEM) was 33.7 µM (inactive) and the GI50 (NCI-H522) was 26.7 µM (inactive). The GI50 (COLO 205) was 15.9 µM (inactive), the GI50 (HOP-92) was 14.4 µM (inactive) and the GI50 (MCF7) was 29.4 µM (inactive). For the same compound, the GI50 (OVCAR-3) was 46.8 µM (inactive), the GI50 (NCI-H226) was 24.7 µM (inactive) and the GI50 (SK-OV-3) was 27.2 µM (inactive). For the same compound, the GI50 (SNB-19) was 61.5 µM (inactive), the GI50 (HOP-62) was 42.2 µM (inactive) and the GI50 (KM12) was 26.9 µM (inactive). The GI50 (SF-539) was 20.4 µM (inactive), the GI50 (Malme-3M) was 16.3 µM (inactive) and the GI50 (ACHN) was 45.4 µM (inactive). For the same compound, the GI50 (MDA-MB-435) was 17.2 µM (inactive), the GI50 (SF-268) was 45.3 µM (inactive) and the GI50 (SK-MEL-28) was 21.3 µM (inactive). For the same compound, the GI50 (SN12C) was 39.9 µM (inactive).
With `CSc1nncc(-c2cc3c(c(SC)n2)CCC3)n1` the GI50 (IGROV-1) was 2.4 µM (inactive), the GI50 (OVCAR-4) was 48.1 µM (inactive) and the GI50 (U-251) was 25.9 µM (inactive). For the same compound, the GI50 (SF-295) was > 100 µM (inactive), the GI50 (NCI-H23) was > 100 µM (inactive) and the GI50 (HCT-15) was over 100 µM. The GI50 (M14) was > 100 µM (inactive), the GI50 (A549) was > 100 µM (inactive) and the GI50 (SK-MEL-5) was > 100 µM (inactive). The GI50 (HCT-116) was 96.2 µM (inactive), the GI50 (SW-620) was 82.4 µM (inactive) and the GI50 (UACC-62) was > 100 µM (inactive). For the same compound, the GI50 (SNB-75) was 22.1 µM (inactive), the GI50 (SK-MEL-2) was > 100 µM (inactive) and the GI50 (MDA-MB-231) was 18.9 µM (inactive). The GI50 (HL-60) was > 100 µM (inactive), the GI50 (786-0) was 79.6 µM (inactive) and the GI50 (CAKI-1) was 40.7 µM (inactive). For the same compound, the GI50 (DU-145) was > 100 µM (inactive), the GI50 (RXF 393) was > 100 µM (inactive) and the GI50 (TK-10) was > 100 µM (inactive). For the same compound, the GI50 (UACC-257) was > 100 µM (inactive), the GI50 (UO-31) was > 100 µM (inactive) and the GI50 (OVCAR-5) was > 100 µM (inactive). The GI50 (PC-3) was > 100 µM (inactive), the GI50 (EKVX) was > 100 µM (inactive) and the GI50 (HT-29) was > 100 µM (inactive). For the same compound, the GI50 (RPMI-8226) was > 100 µM (inactive), the GI50 (OVCAR-8) was 24.4 µM (inactive) and the GI50 (BT-549) was > 100 µM (inactive). The GI50 (NCI/ADR-RES) was 69.5 µM (inactive), the GI50 (CCRF-CEM) was > 100 µM (inactive) and the GI50 (NCI-H522) was 28.8 µM (inactive). For the same compound, the GI50 (COLO 205) was > 100 µM (inactive), the GI50 (OVCAR-3) was > 100 µM (inactive) and the GI50 (NCI-H226) was > 100 µM (inactive). For the same compound, the GI50 (SK-OV-3) was > 100 µM (inactive), the GI50 (SNB-19) was > 100 µM (inactive) and the GI50 (HOP-62) was > 100 µM (inactive). For the same compound, the GI50 (KM12) was > 100 µM (inactive), the GI50 (ACHN) was 53.6 µM (inactive) and the GI50 (MDA-MB-435) was > 100 µM (inactive). The GI50 (SF-268) was 76 µM (inactive), the GI50 (SK-MEL-28) was > 100 µM (inactive) and the GI50 (SN12C) was > 100 µM (inactive).
